These results are taken from ChEMBL document CHEMBL3580616, “Structure-based design of potent HIV-1 protease inhibitors with modified P1-biphenyl ligands: synthesis, biological evaluation, and enzyme-inhibitor X-ray structural studies” (J Med Chem, 2015).

The test system of assay [1] is Human immunodeficiency virus 1. The assay can be described thus: Antiviral activity against HIV1 LAI infected in human MT-2 cells assessed as virus-induced cytopathic effect by MTT assay. The conditions noted are these: Human immunodeficiency virus 1, LAI. (Damage to the host cells serves as the signal in cytopathic effect assays.)
Another assay addresses Protease (Human immunodeficiency virus 1, UniProt Q9YQ12). As to the kind of experiment: Inhibition of wild type HIV1 protease.
The test system of assay [2] is Human immunodeficiency virus 1. As to the kind of experiment: Antiviral activity against multidrug resistant HIV1 MDR/G containing protease mutant infected in human PHA-PBMs assessed as inhibition of p24 Gag protein production. The conditions noted are these: Human immunodeficiency virus 1, MDR/G.
For assay [3], the system named is Human immunodeficiency virus 1. As to the kind of experiment: Antiviral activity against multidrug resistant HIV1 MDR/B containing protease mutant infected in human PHA-PBMs assessed as inhibition of p24 Gag protein production relative to wild type.
The subject of assay [4] is Human immunodeficiency virus 1. The assay can be described thus: Antiviral activity against multidrug resistant HIV1 MDR/C containing protease mutant infected in human PHA-PBMs assessed as inhibition of p24 Gag protein production relative to wild type.
The test system of assay [5] is Human immunodeficiency virus 1. The assay can be described thus: Antiviral activity against multidrug resistant HIV1 MDR/C containing protease mutant infected in human PHA-PBMs assessed as inhibition of p24 Gag protein production. The conditions noted are these: Human immunodeficiency virus 1, MDR/C.
Assay [6] deals with Human immunodeficiency virus 1. The assay can be described thus: Antiviral activity against wild type HIV1 ERS104P infected in human PHA-PBMs assessed as inhibition of p24 Gag protein production. Conditions: Human immunodeficiency virus 1, ERS104P.
The test system of assay [7] is Human immunodeficiency virus 1. As to the kind of experiment: Antiviral activity against multidrug resistant HIV1 MDR/B containing protease mutant infected in human PHA-PBMs assessed as inhibition of p24 Gag protein production. Conditions: Human immunodeficiency virus 1, MDR/B.
The test system of assay [8] is Human immunodeficiency virus 1. The assay can be described thus: Antiviral activity against multidrug resistant HIV1 MDR/G containing protease mutant infected in human PHA-PBMs assessed as inhibition of p24 Gag protein production relative to wild type.

A word on the IC50: it is the concentration that inhibits the measured activity by half. As usually defined, the Ki is a dissociation constant, usually derived from enzyme kinetics or from competition with a known ligand. By EC50 is commonly meant the concentration needed to bring the measured effect to its halfway point.

Chain of Protease (Q9YQ12 whole entry): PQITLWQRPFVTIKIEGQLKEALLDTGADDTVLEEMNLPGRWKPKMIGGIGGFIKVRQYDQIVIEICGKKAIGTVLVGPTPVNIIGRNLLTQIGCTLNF

With `COc1ccc(S(=O)(=O)N(CC(C)C)C[C@@H](O)[C@H](Cc2cccc(-c3c(OC)cccc3OC)c2)NC(=O)O[C@H]2CO[C@H]3OCC[C@H]32)cc1`, the IC50 in assay [1] was 24 nM. The same compound came in with a Ki on Protease of 0.025 nM.

With `COc1ccc(S(=O)(=O)N(CC(C)C)C[C@@H](O)[C@H](Cc2cccc(-c3cccc(OC)c3)c2)NC(=O)O[C@H]2CCOC2)cc1`, in assay [1], the IC50 was greater than 381 nM. The compound further gave an inhibition constant Ki at Protease of 1.53 nM.

Regarding `COc1ccc(S(=O)(=O)N(CC(C)C)C[C@@H](O)[C@H](Cc2cccc(-c3cc(OC)cc(OC)c3)c2)NC(=O)O[C@H]2CO[C@H]3OCC[C@H]32)cc1`, the IC50 in assay [1] was 5 nM. On Protease, the Ki worked out at 0.014 nM.

Take `COc1ccc(S(=O)(=O)N(CC(C)C)C[C@@H](O)[C@H](Cc2cccc(-c3cc(C)cc(C)c3)c2)NC(=O)O[C@H]2CO[C@H]3OCC[C@H]32)cc1`: the IC50 in assay [1] amounted to 56 nM. Besides, the inhibition constant (Ki) on Protease was 0.45 nM.

Turning to `COc1ccc(S(=O)(=O)N(CC(C)C)C[C@@H](O)[C@H](Cc2cccc(-c3cccc(OC)c3)c2)NC(=O)O[C@H]2CO[C@H]3OCC[C@H]32)cc1`, in [1], the IC50 is 5 nM. Moreover, the Ki at Protease was determined as 0.014 nM.

Consider `COc1ccc(S(=O)(=O)N(CC(C)C)C[C@@H](O)[C@H](Cc2cccc(-c3cc(OC(F)(F)F)cc(OC(F)(F)F)c3)c2)NC(=O)OC(C)(C)C)cc1`, for which the IC50 in assay [1] was greater than 1000 nM. This compound also showed a Ki on Protease of 92.8 nM.

As to `COc1ccc(S(=O)(=O)N(CC(C)C)C[C@@H](O)[C@H](Cc2cccc(-c3ccccc3OC)c2)NC(=O)O[C@H]2CO[C@H]3OCC[C@H]32)cc1`, the EC50 in assay [2] amounted to 4.7 nM; in assay [5] it was 2.9 nM; in assay [6], 4.8 nM; in [7], 36 nM. Besides, in assay [1], the IC50 worked out at 3 nM. In addition, the figures for the “fold change (FC)” value in assay [3], in [4] and in assay [8] were 8, 1 and 1, respectively. The compound also returned a Ki at Protease of 0.012 nM.

Take `COc1ccc(S(=O)(=O)N(CC(C)C)C[C@@H](O)[C@H](Cc2cccc(-c3cc(C)cc(C)c3)c2)NC(=O)OC(C)(C)C)cc1`: the 50% inhibitory concentration (IC50) in assay [1] was greater than 1000 nM. The same compound had a Ki on Protease of 48.8 nM.

Regarding `COc1ccc(S(=O)(=O)N(CC(C)C)C[C@@H](O)[C@H](Cc2cccc(-c3ccc4c(c3)OCO4)c2)NC(=O)OC(C)(C)C)cc1`, the IC50 in [1] is greater than 1000 nM. Besides, the Ki on Protease came to 18 nM.

Take `COc1ccc(S(=O)(=O)N(CC(C)C)C[C@@H](O)[C@H](Cc2cccc(-c3cc(OC)cc(OC)c3)c2)NC(=O)OC(C)(C)C)cc1`: in [1], the IC50 was greater than 1000 nM. Besides, on Protease, the Ki turned out to be 0.82 nM.

With `CC(C)CN(C[C@@H](O)[C@H](Cc1ccccc1)NC(=O)O[C@H]1CCOC1)S(=O)(=O)c1ccc(N)cc1`, the EC50 in assay [2] came to 398 nM; in [5], 380 nM; in [6], 37 nM; in [7], 44 nM. Further, the “fold change (FC)” value in [3] was determined as 12; in [4], 10; in assay [8], 11.

As to `COc1ccc(S(=O)(=O)N(CC(C)C)C[C@@H](O)[C@H](Cc2cccc(-c3cc(OC)cc(OC)c3)c2)NC(=O)O[C@H]2CCOC2)cc1`, in assay [1], the IC50 was 180 nM. This compound also showed a Ki at Protease of 0.58 nM.

Consider `COc1ccc(S(=O)(=O)N(CC(C)C)C[C@@H](O)[C@H](Cc2cccc(-c3cc(C)cc(C)c3)c2)NC(=O)O[C@H]2CCOC2)cc1`, for which the half-inhibitory concentration (IC50) in assay [1] was greater than 1000 nM. At Protease, this compound returned a Ki of 0.63 nM.
